Experimental data: patent US20060051868A1, “Methods for increasing conifer somatic embryo initiation, capture, and multiplication” (priority 2001, published 2006)
Where two headings read alike, the source gives them in different places.

Assays:
Type in all cases: cell-based
conifer = assay: Inventors' observation of initiation frequency in conifer with gibberellins
[1] = test system: Loblolly pine megagametophytes; assay: Initiation frequency of embryogenic cultures from Loblolly pine megagametophyte explants
Protocol: Explants were megagametophytes isolated from Loblolly pine summer cones when embryos were at approximately stage 2-4. Seeds were. collected from four individual trees of diverse genotypes. Extracted seeds were soaked in running water for 10 minutes, agitated in 10% liquinox supplemented with 1.1 ml/l of Tween 20 for 10 minutes, and rinsed with water for 30 minutes. Seeds were sterilized in a laminar flow hood by agitating in 20% hydrogen peroxide for 10 minutes and rinsing with sterile deionized water. The seed coat, integuments, and nucellus were removed to isolate the megagametophytes. Culturing was performed in 24-well multi-well culture plates with each well having an approximate volume of 3.0 ml. Two ml of media was poured into each well.
Each replication consisted of eight adjacent wells on a multi-well plate, with one megagametophyte per well, providing three replications per multi-well plate. Twelve replications (for a total of 96 explants) were performed per treatment for each cone collection. The well plates were wrapped in Parafilm®, elastic wrap to minimize evaporation and incubated at 22-24° C. under dark conditions for nine weeks. Initiation frequency was scored for each dish by counting the number of explants which had successfully initiated embryogenic cultures.
The media treatments consisted of: (1) a control media #1043 (see Table 21); (2) media #1218, comprising media #1043 supplemented with 250 mg/l MES buffer; (3) media #1043 supplemented with 0.5 ppm folic acid and 0.05 ppm biotin; and (4) media #1218 supplemented with 0.5 ppm folic acid and 0.05 ppm biotin.
A representative procedure is shown for Loblolly pine. Experimental procedure follow similarly for other conifer but differ slightly in the composition of media used. […] Here, however, each treatment-genotype test consisted of ten replications of ten explants.
The cultures were covered and incubated in the dark at 24-26° C. for nine weeks.
Explants from four Loblolly pine cone collections were prepared and cultured as described in Example 2. The media treatments consisted of control media, #1218, which is media #1043 supplemented. with 250 mg/l MES, and four treatment media, which consist of media #1218 supplemented with 0.33, 1.0, 2.0, and 3.0 ppm paclobutrazol, respectively.
Four cone collections with embryos at stages 2-4 were used. Eighty explants from each cone collection on each media were tested. Seeds were removed from cones and soaked in running water for 10 min. Seeds were then agitated in 10% liquinox containing 1.1 ml/l Tween 20 for 10 min., and then rinsed with running tap water for 30 min. After transferring to a sterile hood, seeds were agitated in 20% H2O2 for 10 min., rinsed with sterile nanopure® H2O five times for 5 to 10 min. intervals, and then placed into a sterile petri dish for dissection. Seeds were dissected by splitting the seed coat, removing the integuments and nucellus. The megagametophyte was placed onto the appropriate medium. Each multi-well test plate contained 2 ml of solid media. Plates were incubated in the dark for 8 weeks and then scored.
The control media, media #1253, is described in detail in Table 16. All test media, #1275, #1421, #1422, and #1423 were comprised of the control media with the addition of a gibberellin inhibitor.

Loblolly pine initiates = assay: Percentage of Loblolly pine maintenance cultures with mass greater than 200 mg at eight weeks; details: control 33.7
From the text: “Initiates” will be used to refer to recently initiated embryogenic tissues still on the initiation media. In this experiment, initiates were transferred to a maintenance and multiplication media directly from the initiation media. Five treatments, consisting of various media or culture conditions were imposed on the these cultures. Treatment media were based on media #1191. (See Table 21.) Initiates derived from eight different cone collections of Loblolly pine were transferred to vials containing 5 ml solid media. Seventy five replications were prepared for each treatment.
The transferred initiates were grown in the various treatments for four weeks, and thereafter transferred to vials containing fresh media (of the same composition utilized during the previous four weeks). At the end of a second four-week period, cultures were carefully removed from the vials and weighed. The percentage of cultures that had attained a mass of 200 mg or more was calculated for each treatment.

[2] = test system: Loblolly pine embryogenic cultures; assay: Growth of Loblolly pine embryogenic cultures from single somatic embryos (tissue diameter, area); details: base Media 1191, ABA 1.3 mg/l, standard atmosphere, five weeks
Protocol: Three previously initiated Loblolly pine embryogenic cultures, each representing a different genotype, were grown in liquid media #1133, used as starting material for embryogenic cultures on various treatment media. Using a dissecting scope, individual stage 2 somatic embryos were extracted and placed on treatment media in the center of individual wells on a well plate. Forty embryos were prepared per treatment media, per genotype. Well plates were wrapped in Parafilm® and cultured under standard conditions at room temperature in the dark for four weeks. Embryogenic cultures derived from the single isolated embryos proliferated and spread over the surface of the culture medium. Spreading cultures were roughly circular in shape, radiating from the central embryo. At the end of four weeks, the growth of each culture was measured by measuring colony diameter using a dissecting scope ocular micrometer. Five treatment media were compared to control media #1043 (Table 21). Three media consisted of #1043 supplemented with paclobutrazol at concentrations of 0.33, 1.0 and 3.0 ppm. A B-vitamin treatment contained biotin at 0.05 ppm and folic acid at 0.5 ppm. […] The pH of media containing four different concentrations of MES was compared to that of a non-buffered control media during eight weeks of embryogenic culture growth. Maintenance cultures were established on treatment media using single isolated somatic embryos. Maintenance cultures were prepared and cultured essentially as described in Example 5. The control media was #1043. (See Table 21). The treatment media consisted of #1043 supplemented with 250, 500, 1000 and 1500 mg/l MES. Media pH was adjusted to 5.7 within all treatments prior to autoclaving, pouring and solidification. Immediately after pouring the media, and thereafter at two week intervals, media pH was measured up to the eighth week of culture growth. At each sampling time, four cultures from each media-genotype treatment were destructively sampled to measure the pH of the media directly underlying the growing embryogenic tissue. This experiment measured the effects of ABA, vitamins, culturing in a closed container, and culturing at increased atmospheric pressure on the growth of embryogenic cultures. Maintenance cultures were prepared on well plates using single somatic embryos, essentially as described in Example 5.

[3] = base media #1253, 1.0 ppm paclobutrazol, 0.1062 ppm flurprimidol, 1.58 ppm chlormequat-Cl, 0.16 ppm succinic acid-dh, 8 weeks, dark, control 29.5
[4] = base media #1253, 1.0 ppm paclobutrazol, 0.1062 ppm flurprimidol, 1.58 ppm chlormequat-Cl, 0.16 ppm succinic acid-dh, 8 weeks, dark, control 58.6

C=C1C[C@]23C[C@@]1(O)CC[C@H]2[C@@]12C=C[C@H](O)[C@@](C)(C(=O)O1)[C@H]2[C@@H]3C(=O)O [gibberellic acid]
effect on initiation frequency in conifer (conifer): inhibitory effect

CN(C)NC(=O)CCC(=O)O [Succinic Acid-DH, succinic acid-DH]
Initiation Frequency (%) [1, 3]: 38.0% | Extrusion (%) [1, 4]: 63.3%

CC(C)C(O)(c1ccc(OC(F)(F)F)cc1)c1cncnc1 (centres unmarked) [Flurprimidol, flurprimidol]
Extrusion (%) [1]: 59.9% | Initiation Frequency (%) [1]: 36.3%

CC1=CC(=O)CC(C)(C)[C@@]1(O)/C=C/C(C)=C\C(=O)O [ABA, abscisic acid]
% mass >200 mg (Loblolly pine initiates; Media 1191 + 1.3 mg/l ABA, cultured at 1.5 atm): 61.2% | % mass >200 mg (Loblolly pine initiates; base Media 1191, ABA 1.3 mg/l, brassinolide 0.1 μM + paclobutrazol 1.0 ppm, MES 250 mg/l, biotin 0.05 ppm, folic acid 0.5 ppm): 48.6% | Tissue diameter (mm) ([2]; control 4.11): 4.61 mm | Tissue area (mm^2) ([2]; control 13.3): 16.7 mm^2

C[N+](C)(C)CCCl [Chlormequat-Cl, chlormequat-Cl]
Initiation Frequency (%) [1, 3]: 36.8% | Extrusion (%) [1, 4]: 61.6%
